In series [1] the target is T1, CCR2 receptor (Homo sapiens, UniProt P41597).
T1 construct: host or cells: THP-1 (human monocytic cell line)
T1 sequence (P41597 1-360 isoform P41597-2): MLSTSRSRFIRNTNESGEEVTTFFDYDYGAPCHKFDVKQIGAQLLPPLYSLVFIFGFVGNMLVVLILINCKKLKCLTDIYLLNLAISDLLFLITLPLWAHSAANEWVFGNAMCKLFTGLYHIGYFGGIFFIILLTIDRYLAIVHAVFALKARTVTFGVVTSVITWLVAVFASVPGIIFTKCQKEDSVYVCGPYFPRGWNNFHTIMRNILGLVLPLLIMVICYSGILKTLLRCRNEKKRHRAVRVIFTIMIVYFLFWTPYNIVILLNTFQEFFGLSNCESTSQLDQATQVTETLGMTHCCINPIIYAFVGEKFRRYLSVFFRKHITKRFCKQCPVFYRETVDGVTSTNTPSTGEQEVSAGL
The series can be described thus: Inhibition of MCP-1 induced Ca-flux in human THP-1 cells. It is filed as cell-based. The conditions noted are these: -log IC50 (molar), inhibition of specific MCP-1 induced Ca2+ flux, 10^-7 M hMCP-1, 20 min pre-incubation, FLIPR. On the procedure:
D. Pharmacological Example Inhibition of MCP-1 Induced Ca-Flux in Human THP-1 Cells
MCP-1 binding to the CCR2 receptor induces a rapid and transient intracellular release of Ca^2+ (secondary messenger) in several cell lines (Charo et al, PNAS 1994). Free Ca^2+ levels can be measured using a Ca^2+ sensitive dye. When the CCR2 receptor is blocked with a CCR2 receptor antagonist, the MCP-1 induced release of Ca^2+ is inhibited.
Human THP-1 cells (monocytic cell line, ATCC TIB-202) were cultured in RPMI 1640 medium supplemented with 10% fetal calf serum (FCS), 1% L-Glutamine, penicillin (50 U/ml) and streptomycin (50 μg/ml) (all GIBCO BRL, Gent). After centrifugation, cells were loaded for 30 minutes with the Ca^2+ sensitive fluorescent dye Fluo-3 AM (Molecular Probes, Leiden, Netherlands) (2 million cells/ml in RPMI medium containing 4 μM Fluo-3 AM, 20 mM HEPES, 0.1% Bovine Serum Albumin (BSA) and 5 mM probenecid). Excess dye was removed by 3-fold washing with buffer (5 mM HEPES, 140 mM NaCl, 1 mM MgCl2, 5 mN KCl, 10 mM glucose, 2.5 mM probenecid, 1.25 mM CaCl2, 0.1% BSA; all further incubations were done in this buffer). Cells were plated at a density of 150 000 cells/well in dark-wall 96-well plates (Costar, Cambridge, Mass.) and sedimented by centrifugation (1 minute). The cells were pre-incubated for 20 minutes with test compound Then, 10^−7 M hMCP-1 (Bachem, Bubendorf, Switserland) was added. Changes in intracellular free Ca^2+ concentration were measured using the Fluorescent Imaging Plate Reader (FLIPR, Molecular Devices, Munchen, Germany). Fluorescence was recorded every second from 10 seconds before the addition of the MCP-1 till 2 minutes after the addition (first minute: 60 records with 1 second intervals, second minute 20 records with 3 second intervals). The maximal fluorescence obtained during this time frame was used for further calculations.
Table 4 reports pIC50 values obtained in the above-described test for compounds of formula (I). pIC50 defines −log IC5o wherein IC50 is the molar concentration of the test compound which inhibits 50% of specific MCP-1 induced Ca^2+ flux.
Background: Calcium flux is commonly read through the fluorescence of an indicator in the cells.

For series [2], the target named is T2, CCR2B (Homo sapiens, UniProt P41597).
T2 construct: expressed in transfected cells; host or cells: CHO cells (membrane preparation)
T2 sequence (P41597 1-360 isoform P41597-2): T1 sequence (P41597 1-360 isoform P41597-2)
The series can be described thus: 125I-MCP-1 radioligand binding assay, membranes from CCR2B-transfected CHO cells. The settings on record: competition with 0.15 nM 125I-MCP-1, 90 minutes at 25° C.; Cheng-Prusoff. On the procedure:
Radioligand Binding Assay.
^125I-MCP binding assays performed in 96-well plates with 40 μg of protein per well. Compounds were dissolved and diluted in DMSO to 100× dilutions. A 10× concentration range of compounds was prepared in binding buffer (10% DSMO). Competition binding assay contained the following components in a total volume of 250 μl of the appropriate compound dilution (final concentration of 1% DMSO), 200 μl membranes from CCR2B-transfected CHO cells dissolved in binding buffer and 25 μl ^125I-MCP-1(Bolton and Hunter labeled, Amersham, specific activity=2000 Ci/mmol, 0.15 nM final). Binding buffer was composed of 25 mM HEPES, 5 mM MgCl2, 1 mM CaCl2, 0.5% protease-free bovine serum albumin, pH 7.4. After 90 minutes incubation at 25° C., membranes were harvested on GF/B filters -presoaked in 0.5% polyethylenimene, followeded by washing with buffer containing 25 mM HEPES, 5 mM MgCl2, 1 mM CaCl2, […], pH 7.4. Filter bound radioactivity was determined by liquid scintillation counting. EC50 values (μM) and Ki values (μM) were calculated. […] EC50 values and Ki values were calculated using non-linear regression in Graphpad Prism. […]

SMILES strings stand for the structures.

As usually defined, the IC50 is the concentration at which inhibition is half-maximal. `CCC(c1ccc(Cl)c(Cl)c1)n1c(-c2nc(C)no2)cnc1S` (stereo not shown) [Compound 5] had an IC50 in series [1] of 200 nM.

With `CCC(c1ccc(Cl)c(Cl)c1)n1c(-c2ccnc(NC)n2)c[nH]c1=S` (stereo not shown) [Compound 20], the IC50 in series [1] is 41.7 nM.

In series [1], `CCC(c1ccc(Cl)c(Cl)c1)n1c(-c2nnc(N)o2)cnc1S` (stereo not shown) [Compound 9] showed an IC50 of 33.1 nM.

The compound `CCC(c1ccc(Cl)c(Cl)c1)n1c(-c2cc[nH]n2)c[nH]c1=S` (stereo not shown) [Compound 11] had an IC50 in series [1] of 724 nM.

In series [1], `CCC(c1ccc(Cl)c(Cl)c1)n1c(-c2ccnc(N3CCNCC3)n2)c[nH]c1=S` (stereo not shown) [Compound 24] had an IC50 of 631 nM.

Compound `CCC(c1ccc(C(F)(F)F)c(F)c1)n1c(-c2nc(C)no2)c[nH]c1=S` (stereo not shown) [Compound 26] gave an IC50 in series [1] of 219 nM.

For the compound `CCC(c1ccc(Cl)c(Cl)c1)n1c(-c2nnc(C)o2)c[nH]c1=S` (stereo not shown) [Compound 14], the half-inhibitory concentration (IC50) in series [1] was 417 nM.

As usually defined, the melting point is the temperature of the solid-liquid transition. For `CCCC(c1ccc(F)c(F)c1)n1c(-c2nnc(C)o2)c(COC)[nH]c1=S` (stereo not shown) [Compound 10], the melting point lay in the range of 97.8 to 97.9 °C.

For orientation: Ki means a dissociation constant, usually derived from enzyme kinetics or from competition with a known ligand. `CCC(c1ccc(Cl)c(Cl)c1)n1c(-c2ccnc(N)n2)c[nH]c1=S` (stereo not shown) [Compound 1] had an IC50 in series [1] of 35.5 nM. Affinity in series [2] was put at a Ki of 170 nM.

With `CCC(c1ccc(Cl)c(Cl)c1)n1c(-c2ncn[nH]2)c[nH]c1=S` (stereo not shown) [Compound 12], in series [1], 398 nM corresponded to half-maximal inhibition (IC50).

The compound `CCC(c1ccc(Cl)c(Cl)c1)n1c(-c2ccnc(NCCO)n2)c[nH]c1=S` (stereo not shown) [Compound 21] had an IC50 in series [1] of 34.7 nM.

`CCC(c1ccc(Cl)c(Cl)c1)n1c(-c2ccnc(C)n2)c[nH]c1=S` (stereo not shown) [Compound 19] gave an IC50 in series [1] of 832 nM.

Values taken from patent publication US20070244138A1, “Mercaptoimidazoles as Ccr2 Receptor Antagonists” (JANSSEN PHARMACEUTICA N.V., priority 2004, published 2007).
